Laboratory results: the supplement of paper PMC10307832

Tests used:
Assay in all cases: relative viability (nuclei count vs DMSO), 5 days (fraction); higher = more cells survive
Vandetanib = compound: COc1cc2/c(=N/c3ccc(Br)cc3F)nc[nH]c2cc1OCC1CCN(C)CC1 [Vandetanib]
Outline: (§1)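 Vehicle-anchored 1536-well plates of lung cancer cell lines, held overnight at 37 °C, were pinned with five library-drug doses (not always all listed) spaced by √10. No medium change followed over the next 5 days, after which the cells were fixed, permeabilised and Hoechst-stained together and imaged at 4×. Nuclei were counted with MetaXpress, and viability is treated-well nuclei over vehicle-well nuclei, taken as a median across plates. Plates passed with control CV below 25% and at least one doubling.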

CUDC-101 = compound: C#Cc1cccc(Nc2ncnc3cc(OC)c(OCCCCCCC(=O)NO)cc23)c1 [CUDC-101]
Outline: as §1

Vandetanib + Pemetrexed = compound: COc1cc2/c(=N/c3ccc(Br)cc3F)nc[nH]c2cc1OCC1CCN(C)CC1 [Vandetanib] + Nc1nc2[nH]cc(CCc3ccc(C(=O)N[C@@H](CCC(=O)O)C(=O)O)cc3)c2c(=O)[nH]1 [Pemetrexed] (partner 0.2 µM)
Outline: (§2)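 Lung cancer cell lines were pin-tool dosed in 1536-well plates on the day after seeding, with either a lone drug or a fixed anchor-drug dose plus five library-drug doses (not always all listed) in √10 steps. Nuclei were counted on 4× images after 5 days. Relative viability is the ratio of treated-well to vehicle-well nuclei counts, with each value a median of duplicate plates.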

NVP-TAE684 + Navitoclax = compound: COc1cc(N2CCC(N3CCN(C)CC3)CC2)ccc1Nc1ncc(Cl)c(Nc2ccccc2S(=O)(=O)C(C)C)n1 [NVP-TAE684] + CC1(C)CCC(c2ccc(Cl)cc2)=C(CN2CCN(c3ccc(C(=O)NS(=O)(=O)c4ccc(N[C@H](CCN5CCOCC5)CSc5ccccc5)c(S(=O)(=O)C(F)(F)F)c4)cc3)CC2)C1 [Navitoclax] (partner 0.5 µM)
Outline: as §2

Cell Line	relative viability (Vandetanib; 0.02 µM)	relative viability (Vandetanib; 0.06325 µM)	relative viability (Vandetanib; 0.2 µM)	relative viability (Vandetanib; 0.6325 µM)	relative viability (Vandetanib; 2 µM)	relative viability (CUDC-101; 0.01 µM)	relative viability (CUDC-101; 0.03162 µM)	relative viability (CUDC-101; 0.1 µM)	relative viability (CUDC-101; 0.3162 µM)	relative viability (CUDC-101; 1 µM)	relative viability (Vandetanib + Pemetrexed; first compound 0.02 µM)	relative viability (Vandetanib + Pemetrexed; first compound 0.06325 µM)	relative viability (Vandetanib + Pemetrexed; first compound 0.2 µM)	relative viability (Vandetanib + Pemetrexed; first compound 0.6325 µM)	relative viability (Vandetanib + Pemetrexed; first compound 2 µM)	relative viability (NVP-TAE684 + Navitoclax; first compound 0.2 µM)	relative viability (NVP-TAE684 + Navitoclax; first compound 0.6325 µM)	relative viability (NVP-TAE684 + Navitoclax; first compound 2 µM)
LC-2-ad	1.02	0.893	1.01	0.868	0.438	1.01	0.989	1.03	0.963	0.758	0.257	0.278	0.273	0.259	0.264	0.394	0.264	0.12
LCLC-97TM1	1.05	0.939	1.01	1.05	0.832	1.05	0.917	1.06	1.02	0.832	0.18	0.184	0.166	0.181	0.181	0.321	0.495	0.13
LK-2	0.97	0.969	0.966	1.06	0.815	1.09	0.978	0.948	0.885	0.546	0.259	0.228	0.284	0.276	0.245	0.777		0.449
LOU-NH91	0.986	0.869	0.825	0.823	0.859	1.06	0.846	0.932	0.872	0.646	0.413	0.381	0.391	0.442	0.431	0.644	0.607	0.463
LU99A	0.839	0.846	0.92	0.895	0.951	1.07	0.877	0.808	0.9	0.58	0.172	0.191	0.197	0.21	0.187	0.802	0.769	0.362
LXF-289	1.01	1.02	1.03	0.985	0.968	1.01	1.03	0.997	0.971	0.908	0.916	0.949	0.885	0.909	0.889	0.966	0.966	0.803
NCI-H23	1.09	0.975	0.894	0.926	0.901	1.13	1	1.1	1.11	0.922	0.605	0.655	0.634	0.631	0.666	0.806	0.785	0.607
NCI-H322M	0.895	0.879	0.872	0.797	0.538	0.889	0.846	0.768	0.739	0.474	0.579	0.615	0.641	0.604	0.51	1.21	1.3	1.2
NCI-H441	1.03	0.948	0.983	1.15	0.939	1.04	1.09	0.981	1.13	0.844	0.252	0.269	0.27	0.263	0.263	0.472	0.583	0.319
NCI-H460	0.964	0.992	1.02	1	0.963	1	0.902	0.977	1.01	0.996	0.0623	0.0604	0.0622	0.0619	0.0589		1.14	0.407
NCI-H520	0.995	0.986	0.925	0.95	0.938	0.997	0.914	0.982	1.02	0.686	0.705	0.646	0.607	0.783	0.679	1.11	1.13	0.357
NCI-H596	0.937	0.876	0.954	0.993	1	0.97	1.01	1.04	1.05	0.88	0.476	0.565	0.427	0.52	0.469	0.936	0.969	0.509
NCI-H647	0.965	0.946	0.968	0.933	0.872	1.08	0.899	1.04	0.987	0.801	0.185	0.152	0.182	0.153	0.175	1.4	1.06	1.16
NCI-H838	0.938	0.902	0.973	0.94	0.957	0.988	0.922	0.992	1.02	0.871	0.242	0.243	0.251	0.232	0.237	1.43	1.09	0.403
NCI-H1355	0.997	0.892	1.01	1.02	0.957	1.03	0.957	0.967	0.976	0.883	1.03	0.994	1.05	0.985	1.06	0.882	0.992	0.622
NCI-H1395	0.909	0.954	0.856	0.938	0.795	1.05	0.883	0.952	0.974	0.648	0.917	0.902	0.746	0.842	0.612	1.79	1.01	1.02
NCI-H1437	0.937	0.968	0.955	1.03	0.981	0.994	0.985	1.01	1.06	0.981	0.308	0.306	0.307	0.319	0.304	1.31	1.12	0.631
NCI-H1650	0.997	0.736	0.843	0.855	0.705	0.895	0.764	0.818	0.799	0.587	0.374	0.315	0.404	0.371	0.392		1.08	0.545

Cell Line	relative viability (Vandetanib; 0.02 µM)	relative viability (Vandetanib; 0.06325 µM)	relative viability (Vandetanib; 0.2 µM)	relative viability (Vandetanib; 0.6325 µM)	relative viability (Vandetanib; 2 µM)	relative viability (CUDC-101; 0.01 µM)	relative viability (CUDC-101; 0.03162 µM)	relative viability (CUDC-101; 0.1 µM)	relative viability (CUDC-101; 0.3162 µM)	relative viability (CUDC-101; 1 µM)	relative viability (Vandetanib + Pemetrexed; first compound 0.02 µM)	relative viability (Vandetanib + Pemetrexed; first compound 0.06325 µM)	relative viability (Vandetanib + Pemetrexed; first compound 0.2 µM)	relative viability (Vandetanib + Pemetrexed; first compound 0.6325 µM)	relative viability (Vandetanib + Pemetrexed; first compound 2 µM)	relative viability (NVP-TAE684 + Navitoclax; first compound 0.2 µM)	relative viability (NVP-TAE684 + Navitoclax; first compound 0.6325 µM)	relative viability (NVP-TAE684 + Navitoclax; first compound 2 µM)
NCI-H1651	0.943	0.961	0.979	0.96	0.893	1.05	0.984	0.991	1.08	0.932	0.579	0.583	0.555	0.5	0.505	1.41	1.07	0.964
NCI-H1666	0.991	0.932	0.891	1.01	0.918	1.04	0.92	0.992	1.05	0.858	0.793	0.879	0.881	0.803	0.874	0.932	0.919	0.566
NCI-H1734	0.954	0.93	1.03	0.894	1.01	1.01	0.942	1.05	0.95	0.703	0.4	0.388	0.41	0.404	0.467	0.844	0.91	0.769
NCI-H1755	1.02	0.952	0.975	0.973	0.96	0.998	0.987	1.02	1.04	0.98	0.396	0.53	0.464	0.482	0.451	1.06	1.06	0.921
NCI-H1792	0.878	0.829	0.974	0.858	0.874	0.928	0.896	0.853	1.04	0.809	0.834	0.733	0.733	0.822	0.771	0.533	0.579	0.558
NCI-H1793	1.01	0.821	0.833	0.765	0.781	0.95	0.707	0.825	0.92	0.613	1.02	0.779	0.772	0.711	0.744	0.467	0.491	0.43
NCI-H1915	0.956	0.984	1.01	0.97	0.985	0.981	1.03	0.956	0.936	0.793	0.496	0.509	0.523	0.505	0.477	0.795	0.806	0.752
NCI-H1944	0.909	0.92	0.902	0.813	0.965	0.981	0.884	0.899	0.817	0.574	0.615	0.566	0.682	0.564	0.58	1.19	0.961	1.08
NCI-H1975	0.931	0.888	0.871	0.997	0.805	0.996	0.917	0.934	1.03	0.91	0.296	0.275	0.268	0.285	0.306	1.06		0.513
NCI-H1993	1	0.922	0.944	0.871	0.754	1.04	0.916	0.833	0.95	0.664	0.629	0.55	0.707	0.515	0.598		0.791	0.696
NCI-H2009	0.963	0.972	1.01	1.03	1.05	1	0.999	1.04	1.04	0.914	1.02	1.14	0.99	0.986	1.05	1.2	1.15	0.95
NCI-H2023	0.909	0.947	1.02	0.917	0.936	1.02	0.884	0.962	1.15	0.87	0.182	0.197		0.202	0.252	0.965	1.04	0.775
NCI-H2085	1.04	0.99	0.99	1.01	0.931	1.01	1.03	1.02	0.981	0.893	1.02	0.786	0.776	0.765	0.767	1.01	1.06	0.874
NCI-H2087	0.934	0.938	1.02	1.15	1.14	1.24	1.06	0.95	1.1	0.884	0.661	0.64	0.619	0.641	0.623	1.11	1.17	0.766
NCI-H2126	0.96	0.91	0.965	0.906	0.903	1.04	0.957	1.03	0.94	0.81	0.658	0.632	0.715	0.669	0.651	0.951	0.84	0.621
NCI-H2170	0.944	0.917	1	0.97	0.989	0.974	0.987	1.06	1.01	0.9	0.278	0.249	0.265	0.262	0.268	0.56	0.585	0.591
NCI-H2228	1.04	0.983	0.836	1.12	0.809	1.02	1.23	0.946	1.09	1.07	0.284	0.337	0.337	0.343	0.292	0.443	0.421	0.129
